Test [1] relates to Raji B cell lymphoma cells. Put plainly: Surface antibody staining and flow cytometry (MHC Class I/II). It counts as cell-based, human. The procedure:
(§1) Intracellular staining and flow cytometric analyses of cytoplasmic Melan-A/MART-1, and gp100 expression were performed as described previously. Cells were fixed with 1% formaldehyde, permeabilized with 0.1% saponin, stained with monoclonal antibodies to melanocyte antigens. Antibodies were obtained with specificity for: Melan-A/MART-1 from Vector Labs (Burlingame, Calif.); gp100/HMB45 from DakoCytomation (Carpinteria, Calif.) and then visualized with goat anti-mouse FITC-conjugated secondary antibody from Invitrogen (Frederick, Md.). The level of EGFP was determined by flow cytometry of unfixed cells washed and resuspended in 1×PBS. Surface staining of MHC Class I was carried out using the antibody W6/32 on cells harvested with Cell Stripper from MediaTech Inc. (Manassas, Va.) and carried out on ice.
(§2) Cell were seeded at 1×10^6 cells in a T25 flask with 10 ml of media for the 4 day IFN-beta pre-treatments. Cells were then harvested and plated in 24 well plate at 1×10^5 cells per well in 1 ml of media for 3 day treatments.
(§3) For surface staining of HLA Class I and II antigens, cells were harvested using CellStripper™ from Mediatech (Manassas, Va.). All staining steps were performed on ice. Following a first incubation with antibody to Class I (W6/32) or Class II (L243) for 30 minutes. Stained cells were washed twice with cold PBS and then stained with a goat anti-mouse FITC secondary antibody to allow for quantitative analysis by flow cytometry. For evaluation of cytoplasmic antigens, including Melan-A/MART-1 and gp100, cells were first fixed in paraformaldehyde and permeabilized with saponin as previously described. Staining for cytoplasmic antigens was carried out at room temperature (22° C.).
A general note: Flow cytometry measures light scatter and fluorescence of single cells or particles in a stream.

For test [2], the system named is MCF-7 breast cancer cells. Described as above. It is filed as cell-based, human. Here is the method:
as §1, §2, §3

Test [3] deals with HeLa cervical carcinoma cells. The description is as above. It is filed as cell-based, human. The note with it: for Class I MHC, geometric mean of surface staining (W6/32): 4 day IFN-β pre-treatment (5000 Units/ml), with PU-H71 0.3 where labelled (label IFN-β: no inhibitor). The procedure: as §1, §2, §3
Test [4] has as its system B16 murine melanoma cell line. Put plainly: Antibody staining and flow cytometry (intracellular gp100, TRP-2; surface Class I with H2kb antibody). It is filed as cell-based, mouse. The conditions noted are these: 3 days, 17-AEP 0.5, PU-H71 0.15, CCT018159 2.5 μg/ml.
Text: To further evaluate enhancement of immune recognition of cancer cells by inhibition of Hsp90 function, it was shown that a total of twelve different Hsp90 inhibitors were active in several molecular and cellular assays on a series of cell lines, including eleven human melanomas, the murine B16 melanoma, and two human gliomas. […] The melanomas all express varying levels of differentiation antigens Melan-A/MART-1, gp100 and TRP-2, as well as the MHC-Class I antigen (as evidenced by W6/32 antibody staining) that is required for T cell recognition of the tumor cells. Each of these antigens is enhanced by all of the Hsp90 inhibitors. […] Similar to the human counterparts, the B16 mouse tumor also can be induced to express enhanced antigen levels upon 3-day exposure to each of the Hsp90 inhibitors (Table 16). The mouse H-2 Class I antigen is likewise induced by the Hsp90 inhibitors.
General culture conditions for cell propagation and the origins of most of the melanoma cell lines have been previously described. Melanoma cells were cultured in DMEM with 10% FBS. The glioma cell lines U87 MG and U118 MG were obtained from the American Type Culture Collection (ATCC). The B16 murine melanoma cell line was provided by Dr. Andrew Hurwitz and has been previously described. The T cell receptor (TCR)-negative Jurkat T cell line derivative J.RT3-T3.5 was obtained from ATCC. The construction of the J.RT3-T3.5 cell line expressing a Melan-A/MART-1 specific TCR has been described previously. T cells were cultured in RPMI with 10% FBS. IFN-beta-1a (Avonex) was obtained from Biogen-Idec (Cambridge, Mass.) and reconstituted according to the manufacturer's recommendations. The Hsp90 inhibitor radicicol was purchased from A.G. Scientific (San Diego, Calif.). Novobiocin was ordered from BioMol (Plymouth Meeting, Pa.). 17-DMAG was obtained from LC laboratories (Woburn, Mass.). 17-AEP-AP was purchased from InVivoGen (San Diego, Calif.). […] Gedunin, CCT018159, and celastrol were purchased from Tocris (Ellisville, Mo.). Selleck Chemicals (Houston, Tex.) provided NVP-AUY922 and BIIB021.
Cells were plated at a density of 1×10^5 in 1 ml of medium in a 24-well plate and cultured for varying times as indicated in results. Typically, 3 days of culture in the presence of Hsp90 inhibitors was optimal for the functional studies performed. After incubation, cells were collected by trypsinization and then evaluated by flow cytometry.
as §1

Test [5] concerns Jurkat T cell lymphoma cells. Put plainly: Surface antibody staining and flow cytometry (MHC Class I/II). It is filed as cell-based, human. Here is the method:
as §1, §3

Test [6] has as its system EBV-19 B cell lymphoma cells. The test is described as above. It is filed as cell-based, human. The conditions noted are these: three days, IFN-β 5000 Units/ml. Here is the method:
as §1, §3

For the next test, the system named is tumor cell lines. Kind of test: MHC Class I and Class II surface staining, statements over a panel of tumor cell lines. It is filed as cell-based, human. The conditions noted are these: HeLa, MCF-7, U2-OS, MU-89, U118, Jurkat, Raji (Table 19). Here is the method: as §3
[7] abbreviates: three days, IFN-β 5000 Units/ml, IFN-γ 100 ng/ml, PU-H71 0.3 mg/ml.
[8] abbreviates: MCF-7 cells, Table 20, single agent or simultaneous combination.
Setting [9] is: HeLa cells, Table 20, single agent or simultaneous combination.

Consider `CC(C)NCCCn1c(Sc2cc3c(cc2I)OCO3)nc2c(N)ncnc21` [PU-H71], for which the “Class I MHC, geometric mean of surface staining (W6/32)” value in test [1] (4 day IFN-β pre-treatment (5000 Units/ml), then 3 days with fresh IFN-β, with PU-H71 0.3 mg/ml where labelled (label IFN-β: no inhibitor)) is 129; in test [1] (4 day IFN-β pre-treatment (5000 Units/ml), then 3 days without IFN-β, with PU-H71 0.3 mg/ml where labelled (label IFN-β: no inhibitor)) it was 139; in test [1] (single agent for 3 days, no IFN-β pre-treatment, IFN-β 5000 Units/ml, PU-H71 0.3 mg/ml) it was 157; in test [2] (MCF-7, 4 day IFN-β pre-treatment (5000 Units/ml), then 3 days with fresh IFN-β, with PU-H71 0.3 mg/ml where labelled (label IFN-β: no inhibitor)) it was 213; in test [2] (MCF-7, 4 day IFN-β pre-treatment (5000 Units/ml), then 3 days without IFN-β, with PU-H71 0.3 mg/ml where labelled (label IFN-β: no inhibitor)), 227; in test [2] (MCF-7, single agent for 3 days, no IFN-β pre-treatment, IFN-β 5000 Units/ml, PU-H71 0.3 mg/ml) it was 61. The “Class I MHC, geometric mean of surface staining (W6/32)” value is on record as 137 in test [3] (HeLa, then 3 days with fresh IFN-β) and 168 in test [3] (HeLa, then 3 days without IFN-β). In addition, the “L243 (MHC Class II surface staining)” value turned out to be 79.0 in test [1] (single agent); 4.7 in test [2] (MCF-7, single agent); 4.7 in test [2] (setting [8]); 3.5 in test [3] (HELA, single agent); 3.8 in test [3] (setting [9]); 4 in test [3] (HeLa cells, Table 21, no pre-treatment, treatment as labelled). For the same compound, the “L243 (MHC Class II surface staining)” value in test [3] (HeLa cells, Table 21, pre-treatment IFN-G (3 days), then treatment as labelled) was determined as 185; in test [3] (HeLa cells, Table 21, substance given as pre-treatment (3 days) only, no subsequent treatment), 6; in test [5] (single agent), 1.2. Further, the “MHC Class I, geometric mean of surface staining (W6/32)” value in test [1] (setting [7]) is 139; in test [1] (three days, IFN-β 5000 Units/ml, PU-H71 0.075-0.3 mg/ml) it was 79; in test [2] (MCF-7, three days, IFN-β 5000 Units/ml, PU-H71 0.075-0.3 mg/ml) it was 61; in test [3] (HeLa, three days, IFN-β 5000 Units/ml, IFN-γ 100 ng/ml, PU-H71 0.3) it was 402; in test [3] (HeLa, three days, IFN-β 5000 Units/ml, PU-H71 0.075-0.3), 182; in test [5] (three days, IFN-β 5000 Units/ml, IFN-γ 100 ng/ml, PU-H71 0.3 μg/ml), 24. In addition, the “MHC Class I, geometric mean of surface staining (W6/32)” value is given as 41 in test [5] (three days, IFN-β 5000 Units/ml, PU-H71 0.075-0.3 μg/ml); 124 in test [6] (IFN-γ 100 ng/ml, PU-H71 0.3); 119 in test [6] (PU-H71 0.075-0.3). Besides, the “MHC Class II, geometric mean of surface staining (L2443)” value in test [1] (setting [7]) turned out to be 160; in test [3] (HeLa, three days, IFN-β 5000 Units/ml, IFN-γ 100 ng/ml, PU-H71 0.3 mg/ml), 19; in test [5] (setting [7]), 1; in test [6] (IFN-γ 100 ng/ml, PU-H71 0.3 mg/ml) it was 114. The “Class II induction, combination” value in test [2] (MCF-7, PU-H71 and IFN-gamma) is “inhibited”. Moreover, in test [2] (MCF-7, addition of PU-H71), the “Class I stimulation induced with IFN-beta or IFN-gamma, combination” value is on record as “diminished”. Besides, the figures for the “W6/32 (MHC Class I surface staining)” value in test [2] (setting [8]) and in test [3] (setting [9]) were 113.0 and 286.6, respectively. For the same compound, the “Class II antigen level, sequential treatment” value in test [3] (HeLa, IFN-gamma for 3 days, subsequently PU-H71) was “significantly greater than that achieved with IFN-gamma alone”. The “Class I expression, combination” value in test [3] (HeLa, PU-H71 together with IFN-beta) is “do not show the synergy”. For the same compound, the “Class I, geometric mean of surface staining (H2kb)” value (from here on “Class I, geometric mean … (H2kb)”) in test [4] stood at 14. Also, in test [4], the “TRP-2, geometric mean of intracellular staining” value (“TRP-2, geometric mean” for short) amounted to 360. The “gp100, geometric mean of intracellular staining” value (from here on “gp100, geometric mean”) in test [4] stood at 595. Further, the “Class II MHC expression over the tumor panel” value in the test on tumor cell lines is reported as “no induction”.

Regarding `CO[C@H]1/C=C\C=C(/C)C(=O)NC2=CC(=O)C(NCCN3CCCC3)=C(C[C@@H](C)C[C@H](OC)[C@H](O)[C@@H](C)/C=C(\C)[C@@H]1OC(N)=O)C2=O` [17-AEP], in test [4], the “Class I, geometric mean … (H2kb)” value turned out to be 13; the “TRP-2, geometric mean” value is given as 288; the “gp100, geometric mean” value was found to be 420.

Turning to `CCc1cc(-c2n[nH]c(C)c2-c2ccc3c(c2)OCCO3)c(O)cc1O` [CCT018159], in test [4], the “Class I, fold increase relative to untreated control” value was determined as 6.8 fold; the “Class I, geometric mean … (H2kb)” value is on record as 16; the “TRP-2, fold increase relative to untreated control” value was determined as 3.9 fold; the “TRP-2, geometric mean” value turned out to be 364. Moreover, in test [4], the “gp100, fold increase relative to untreated control” value is on record as 5.2 fold and the “gp100, geometric mean” value is given as 414.

The values above are taken from patent publication US20140335050A1, “METHODS, COMPOSITIONS, AND KITS FOR THE TREATMENT OF CANCER” (The General Hospital Corporation, priority 2011, published 2014).
